Test results published in PMC12598616, “Design and optimization of caspase-1-responsive fluorescent probes for pyroptosis imaging and anti-pyroptosis drug screening” (Chemical Science, 2025).

Key:
caspase-3 = experiment: Selectivity of probes: caspase-3; type: biochemical, human; settings: caspase-3 1 μg/mL, 37 °C, 2 h, λex 510 nm, λem 585 nm
From the text: (§1) The resin used for SPPS was purchased from GL Biochem (Shanghai, China). Lipopolysaccharide (LPS, L2630), Nigericin and ATP (11140965001) were purchased from Merck (Shanghai, China) and Invitrogen (Shanghai, China), respectively. Cell culture plates were sourced from Wuxi NEST Biotechnology. Recombinant human caspase-1, caspase-3, caspase-4, and caspase-8 were obtained from Abcam and MCE (Shanghai, China). Anti-cleaved caspase-1 antibody, anti-GAPDH antibody, and goat anti-Rabbit/anti-mouse lgG/HRP were purchased from CST (USA) and Beyotime […]
(§2) (Shanghai, China). […]
(§3) Medical College (ethical approval number ZJCLA-IACUC-20011003). […]
(§4) To investigate the sensitivity of the probes for caspase-1, varying concentration of caspase-1 (0, 0.2, 0.4, 0.6, 0.8, 1.0, 1.25, 1.5, 1.75, 2, 2.5, 3 U/mL) were incubated with FPy1 (5 μM), YPy1 (5 μM) and WPy1 (5 μM) respectively in caspase-1 assay buffer (50 mM HEPES, 50 mM NaCl, 0.1 % chaps, 5 % glycerol, 10 mM DTT, 10 mM EDTA) at 37 °C for 2 hours. Fluorescence spectra were recorded using Hitachi F-2700 spectrophotometer with an excitation at 510 nm (Photomultiplier voltage 700 V; Slit widths ex: 10 nm and em =5.0 nm). […] The limit of detection (LoD) was calculated from 3σ/k, in which σ represents the standard deviation of 15 blank measurements. […]
(§5) 10 nm and em =5.0 nm). The fluorescence intensity of FPy1, YPy1 and WPy1 at 585 nm were plotted separately against […]

caspase-4 = experiment: Selectivity of probes: caspase-4; type: biochemical, human; settings: caspase-4 2 U/mL, 37 °C, 2 h, λex 510 nm, λem 585 nm
From the text: as §1, §2, §3, §4, §5

| Substance | fluorescence response to caspase-3 (caspase-3) | fluorescence response to caspase-4 (caspase-4) |
| --- | --- | --- |
| –FLTDG– [FPy1, RhoB donor, hNR quencher] | almost no response | almost no response |
| –YVADG– [YPy1, caspase-1-responsive FRET probe with recognition peptide –YVADG–; RhoB donor, hNR quencher] | almost no response | almost no response |
